In ChEMBL document CHEMBL1130813, “Novel euglycemic and hypolipidemic agents: Part-2. Antioxidant moiety as structural motif” (1998):
The source made the active and inactive calls. The rule behind the calls is not given here.

Legend:
Mus musculus [1] = test: Percent reduction in plasma blood glucose level was evaluated in mice at a dose of 200 mg/kg/day p.o. for 9 days; assay type: functional; conditions: route oral
Mus musculus [2] = test: Percent reduction in plasma triglyceride level was evaluated in mice at a dose of 200 mg/kg/day p.o. for 9 days; assay type: functional; conditions: route oral
Mus musculus [3] = test: Percent reduction in plasma triglyceride level was evaluated in mice at a dose of 200 mg/kg/day p.o. for 9 days; not applicable; assay type: functional, organism-based

Cc1c(C)c2c(c(C)c1OCc1ccccc1)CCC(C)(CN(C)CCOc1ccc(/C=C3\SC(=O)NC3=O)cc1)O2 (stereo not given)
Reduction (Mus musculus [1]): 39% | Reduction (Mus musculus [2]): 32%

Cc1c(C)c2c(c(C)c1O)CCC(C)(CNCCOc1ccc(/C=C3\SC(=O)NC3=O)cc1)O2 (stereo not given)
Reduction (Mus musculus [1]): 6% | Reduction (Mus musculus [2]): 29%

Cc1c(C)c2c(c(C)c1O)CCC(C)(CN(C)CCOc1ccc(/C=C3\SC(=O)NC3=O)cc1)O2.Cl (stereo not given)
Reduction (Mus musculus [1]): 31% | Reduction (Mus musculus [2]): 30%

Cc1c(C)c2c(c(C)c1O)C(CN(C)CCOc1ccc(/C=C3\SC(=O)NC3=O)cc1)C(C)(C)O2.O=C(O)/C=C\C(=O)O (stereo not given)
Reduction (Mus musculus [1]): 35% | Reduction (Mus musculus [2]): 33%

CCN(CCOc1ccc(/C=C2\SC(=O)NC2=O)cc1)CC1(C)CCc2c(C)c(O)c(C)c(C)c2O1 (stereo not given)
Reduction (Mus musculus [1]): 2% | Reduction (Mus musculus [2]): 76%

Cc1c(C)c2c(c(C)c1O)CCC(C)(COc1ccc(CC3SC(=O)NC3=O)cc1)O2 (stereo not given) [TROGLITAZONE]
Reduction (Mus musculus [1]): 24% | Reduction (Mus musculus [2]): 50%

Cc1c(C)c2c(c(C)c1OCc1ccccc1)C(CN(C)CCOc1ccc(/C=C3\SC(=O)NC3=O)cc1)C(C)(C)O2 (stereo not given)
Reduction (Mus musculus [1]): 23% | Reduction (Mus musculus [3]): inactive

CS(=O)(=O)O.Cc1c(C)c2c(c(C)c1O)CCC(C)(CN(C)CCOc1ccc(/C=C3\SC(=O)NC3=O)cc1)O2 (stereo not given)
Reduction (Mus musculus [1]): 20% | Reduction (Mus musculus [2]): 70%

Cc1c(C)c2c(c(C)c1O)CCC(C)(CN(C)CCOc1ccc(CC3SC(=O)NC3=O)cc1)O2 (stereo not given)
Reduction (Mus musculus [1]): 4% | Reduction (Mus musculus [3]): inactive

Cc1c(C)c2c(c(C)c1O)C(CN(C)CCOc1ccc(/C=C3\SC(=O)NC3=O)cc1)C(C)(C)O2 (stereo not given)
Reduction (Mus musculus [1]): 46% | Reduction (Mus musculus [2]): 71%

Cc1c(C)c2c(c(C)c1O)C(COc1ccc(CC3SC(=O)NC3=O)cc1)C(C)(C)O2 (stereo not given)
Reduction (Mus musculus [1]): 19% | Reduction (Mus musculus [2]): 40%

Cc1c(C)c2c(c(C)c1O)C(CN(C)CCOc1ccc(CC3SC(=O)NC3=O)cc1)C(C)(C)O2 (stereo not given)
Reduction (Mus musculus [1]): 17% | Reduction (Mus musculus [2]): 33%

Cc1c(C)c2c(c(C)c1O)CCC(C)(CN(C)CCOc1ccc(/C=C3\SC(=O)NC3=O)cc1)O2.O=C(O)/C=C\C(=O)O (stereo not given)
Reduction (Mus musculus [1]): 20% | Reduction (Mus musculus [2]): 60%

Cc1c(C)c2c(c(C)c1O)CCC(C)(CN(C)CCOc1ccc(/C=C3\SC(=O)NC3=O)cc1)O2 (stereo not given)
Reduction (Mus musculus [1]): 43% | Reduction (Mus musculus [2]): 70%

CC(=O)O.Cc1c(C)c2c(c(C)c1O)CCC(C)(CN(C)CCOc1ccc(/C=C3\SC(=O)NC3=O)cc1)O2 (stereo not given)
Reduction (Mus musculus [1]): 11% | Reduction (Mus musculus [2]): 31%
